The values that follow come from US11339128B2 (Firmenich Incorporated, priority 2014, dated 2022).

Data set [1] can be described thus: Sensory paired-comparison sweetness test of sweetener (sucrose or high-fructose corn syrup) with test compound. The format is in vivo, human. The conditions noted are these: test compound 10 ppm or less with 6% sucrose, low sodium buffer pH 7.1; sucrose-alone concentration of equivalent perceived sweetness. The method, then: Test samples containing either a sweetener (sucrose or high-fructose corn syrup) alone or in combination with a test compound were presented in pairs to a group of panelist who were asked to determine which of the samples was sweeter. Subjects refrained from eating or drinking (except water) for at least 1 hour prior to the test. Subjects rinsed with water several times to clean the mouth. The samples within a paired comparison test were presented in a randomized, counterbalanced order. Panelists had up to a 1 minute delay between taste tests to clear the mouth of any tastes. Binomial probability tables were used to determine the probability of the correct number of responses occurring for each test at alpha-0.05.
Stock solutions of test compounds were prepared at 1000× final concentration with ethanol to ensure dispersion in solution. Test compound samples including sucrose were prepared by diluting the stock solutions in a low sodium buffer (0.952 g of KCl, 5.444 g of Na2HPO4, and 0.952 g of KH2PO4 in deionized ultrafiltered water) at pH 7.1 and containing sucrose. Test compound samples including high fructose corn syrup were prepared by diluting the stock solutions in the low sodium buffer at pH 2.8 (using citric acid to adjust the pH) and containing high fructose corn syrup. Control samples were balanced to 0.1% ethanol final.
In samples containing the test compound, the test compound was present at a concentration of 10 ppm or less and the concentration of sucrose was 6%. This table indicates the sucrose-alone concentration having a perceived sweetness intensity equivalent to the sweetness intensity of the combination of test compound and sucrose. An “A” value indicates an equivalent sucrose concentration greater than 6% and less than 10%. A “B” value indicates an equivalent sucrose concentration of 10% or greater. […]

For a further data set, the target named is T1, T1R2/T1R3 taste receptor (Homo sapiens, UniProt Q7RTX0+Q8TE23).
T1 sequence (Q8TE23 20-839): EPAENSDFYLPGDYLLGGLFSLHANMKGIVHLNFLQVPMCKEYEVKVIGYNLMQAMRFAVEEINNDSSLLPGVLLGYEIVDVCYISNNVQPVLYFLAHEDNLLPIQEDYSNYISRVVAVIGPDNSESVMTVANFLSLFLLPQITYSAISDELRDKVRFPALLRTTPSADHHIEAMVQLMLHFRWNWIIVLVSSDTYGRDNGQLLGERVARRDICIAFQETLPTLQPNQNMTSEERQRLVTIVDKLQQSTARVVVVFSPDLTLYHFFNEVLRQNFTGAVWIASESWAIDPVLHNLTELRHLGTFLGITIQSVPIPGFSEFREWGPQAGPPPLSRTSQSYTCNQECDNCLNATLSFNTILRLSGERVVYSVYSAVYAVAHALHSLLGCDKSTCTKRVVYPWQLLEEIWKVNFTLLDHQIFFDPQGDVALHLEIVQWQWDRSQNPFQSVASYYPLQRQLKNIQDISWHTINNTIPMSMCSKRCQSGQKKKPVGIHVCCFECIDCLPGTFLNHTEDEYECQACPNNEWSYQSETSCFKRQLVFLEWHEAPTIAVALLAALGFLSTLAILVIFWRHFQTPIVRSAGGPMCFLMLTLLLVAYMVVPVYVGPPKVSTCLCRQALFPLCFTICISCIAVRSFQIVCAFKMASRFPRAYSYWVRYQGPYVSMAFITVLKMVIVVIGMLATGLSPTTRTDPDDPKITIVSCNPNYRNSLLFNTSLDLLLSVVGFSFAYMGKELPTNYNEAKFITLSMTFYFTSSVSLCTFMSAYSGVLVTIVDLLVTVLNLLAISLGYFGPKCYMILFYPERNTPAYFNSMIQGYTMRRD
T1 sequence (Q7RTX0 21-852): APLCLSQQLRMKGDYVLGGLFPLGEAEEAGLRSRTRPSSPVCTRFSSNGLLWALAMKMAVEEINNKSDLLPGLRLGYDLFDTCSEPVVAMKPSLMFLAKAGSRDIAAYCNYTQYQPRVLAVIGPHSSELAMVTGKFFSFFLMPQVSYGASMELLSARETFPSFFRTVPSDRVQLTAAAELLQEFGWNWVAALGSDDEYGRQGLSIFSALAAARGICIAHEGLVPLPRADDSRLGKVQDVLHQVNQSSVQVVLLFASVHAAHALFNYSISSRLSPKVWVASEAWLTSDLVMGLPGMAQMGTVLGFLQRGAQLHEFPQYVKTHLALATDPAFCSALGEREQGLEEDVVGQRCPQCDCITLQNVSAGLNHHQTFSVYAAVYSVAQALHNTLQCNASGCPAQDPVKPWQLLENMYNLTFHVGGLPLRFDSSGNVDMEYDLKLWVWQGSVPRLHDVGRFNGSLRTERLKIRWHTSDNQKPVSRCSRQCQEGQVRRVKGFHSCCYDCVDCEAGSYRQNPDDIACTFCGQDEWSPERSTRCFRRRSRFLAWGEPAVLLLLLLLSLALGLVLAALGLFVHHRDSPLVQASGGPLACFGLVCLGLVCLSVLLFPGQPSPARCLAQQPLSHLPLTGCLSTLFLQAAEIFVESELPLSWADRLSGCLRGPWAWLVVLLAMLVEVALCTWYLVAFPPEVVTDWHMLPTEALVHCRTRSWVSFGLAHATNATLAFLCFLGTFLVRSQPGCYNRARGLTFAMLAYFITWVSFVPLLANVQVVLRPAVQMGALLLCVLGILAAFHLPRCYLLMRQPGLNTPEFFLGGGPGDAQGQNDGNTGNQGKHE
Put plainly: Receptor-based assay: sweetener EC50 enhancement ratio with and without test compound. The format is cell-based. The conditions noted are these: for Sucrose Enhancement EC50 Ratio: sweetener sucrose; for Sucralose Enhancement EC50 Ratio: sweetener sucralose; for Fructose Enhancement EC50 Ratio: sweetener fructose. The method in brief: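 Sweetener (sucrose, sucralose, fructose) EC50 measured alone and with 1, 3, 10 or 50 μM test compound. Enhancement ratio = EC50 without/with compound; A = >1 to <10, B = 10–20, C = >20.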

`Cc1nc2cccc(O[C@H]3CC[C@H](C)CC3)c2c(N)c1C(=O)O` [Compound 100, 4-Amino-2-methyl-5-((trans-4-methylcyclohexyl)oxy)quinoline-3-carboxylic acid]: the melting point (commonly the temperature, or range, at which the solid turns liquid) fell in the range of 225 to 228 °C. In data set [1], the “Equivalent Sucrose Conc.” value was “B (an equivalent sucrose concentration of 10% or greater)”. Also, the “Sucrose Enhancement EC50 Ratio” value at T1R2/T1R3 taste receptor (1 μM test compound) is listed as “B (an enhancement ratio from 10 to 20)”. Also, the “Sucrose Enhancement EC50 Ratio” value at T1R2/T1R3 taste receptor (3 μM test compound) is reported as “C (an enhancement ratio greater than 20)”. The “Sucrose Enhancement EC50 Ratio” value on T1R2/T1R3 taste receptor (10 μM test compound) is listed as “C (an enhancement ratio greater than 20)”.
`CCOCC(=O)N[C@H]1CC[C@H](Oc2cccc3nc(C)c(C(=O)O)c(N)c23)CC1` [Compound 300, 4-Amino-5-((trans-4-(2-ethoxyacetamido)cyclohexyl)oxy)-2-methylquinoline-3-carboxylic acid] yielded a melting point of 204 to 206 °C. For the same compound, in data set [1], the “Equivalent Sucrose Conc.” value is “B (an equivalent sucrose concentration of 10% or greater)”. For the same compound, the “Sucrose Enhancement EC50 Ratio” value on T1R2/T1R3 taste receptor (1 μM test compound) is recorded as “B (an enhancement ratio from 10 to 20)”. Also, on T1R2/T1R3 taste receptor (3 μM test compound), the “Sucrose Enhancement EC50 Ratio” value is recorded as “C (an enhancement ratio greater than 20)”. In addition, on T1R2/T1R3 taste receptor (10 μM test compound), the “Sucralose Enhancement EC50 Ratio” value is listed as “B (an enhancement ratio from 10 to 20)” and the “Sucrose Enhancement EC50 Ratio” value is reported as “C (an enhancement ratio greater than 20)”.
For the compound `Cc1nc2cccc(O[C@H]3CC[C@H](NC(=O)COC4CCC4)CC3)c2c(N)c1C(=O)O` [Compound 309], the “Equivalent Sucrose Conc.” value in data set [1] is given as “B (an equivalent sucrose concentration of 10% or greater)”. Also, the “Sucrose Enhancement EC50 Ratio” value on T1R2/T1R3 taste receptor (1 μM test compound) was “B (an enhancement ratio from 10 to 20)”. Moreover, at T1R2/T1R3 taste receptor (3 μM test compound), the “Sucralose Enhancement EC50 Ratio” value is reported as “B (an enhancement ratio from 10 to 20)”; the “Sucrose Enhancement EC50 Ratio” value was “A (an enhancement ratio of greater than 1 and less than 10)”. At T1R2/T1R3 taste receptor (10 μM test compound), the “Fructose Enhancement EC50 Ratio” value is “A (an enhancement ratio of greater than 1 and less than 10)”; the “Sucralose Enhancement EC50 Ratio” value is on record as “B (an enhancement ratio from 10 to 20)”; the “Sucrose Enhancement EC50 Ratio” value is reported as “B (an enhancement ratio from 10 to 20)”.
Turning to `Cc1nc2cccc(O[C@H]3CC[C@H](NC(=O)COC4CCCC4)CC3)c2c(N)c1C(=O)O` [Compound 310], the “Equivalent Sucrose Conc.” value in data set [1] is listed as “B (an equivalent sucrose concentration of 10% or greater)”. In addition, on T1R2/T1R3 taste receptor (1 μM test compound), the “Sucrose Enhancement EC50 Ratio” value is recorded as “C (an enhancement ratio greater than 20)”. The “Sucralose Enhancement EC50 Ratio” value on T1R2/T1R3 taste receptor (3 μM test compound) was “B (an enhancement ratio from 10 to 20)”; on T1R2/T1R3 taste receptor (10 μM test compound), “A (an enhancement ratio of greater than 1 and less than 10)”. Also, the “Fructose Enhancement EC50 Ratio” value at T1R2/T1R3 taste receptor (10 μM test compound) is “A (an enhancement ratio of greater than 1 and less than 10)”.
For `Cc1nc2cccc(O[C@H]3CC[C@H](NC(=O)COC4CCCCC4)CC3)c2c(N)c1C(=O)O` [Compound 311], the “Equivalent Sucrose Conc.” value in data set [1] is “A (an equivalent sucrose concentration greater than 6% and less than 10%)”. For the same compound, the “Sucrose Enhancement EC50 Ratio” value is “B (an enhancement ratio from 10 to 20)” on T1R2/T1R3 taste receptor (1 μM test compound); “A (an enhancement ratio of greater than 1 and less than 10)” on T1R2/T1R3 taste receptor (3 μM test compound). In addition, the “Sucralose Enhancement EC50 Ratio” value on T1R2/T1R3 taste receptor (3 μM test compound) is “A (an enhancement ratio of greater than 1 and less than 10)”.
As to `Cc1nc2cccc(O[C@H]3CC[C@H](Nc4ncccn4)CC3)c2c(N)c1C(=O)O` [Compound 700, 4-Amino-2-methyl-5-((trans-4-(pyrimidin-2-ylamino)cyclohexyl)oxy) quinolone-3-carboxylic acid], the “Equivalent Sucrose Conc.” value in data set [1] is on record as “B (an equivalent sucrose concentration of 10% or greater)”. In addition, the “Sucrose Enhancement EC50 Ratio” value at T1R2/T1R3 taste receptor (1 μM test compound) was “A (an enhancement ratio of greater than 1 and less than 10)”; on T1R2/T1R3 taste receptor (3 μM test compound), “C (an enhancement ratio greater than 20)”; at T1R2/T1R3 taste receptor (10 μM test compound), “C (an enhancement ratio greater than 20)”. Besides, the “Sucralose Enhancement EC50 Ratio” value at T1R2/T1R3 taste receptor (3 μM test compound) and on T1R2/T1R3 taste receptor (10 μM test compound) was “C (an enhancement ratio greater than 20)” throughout.
